EP4696306A1, “ADENOSINE TRIPHOSPHATE SECRETION INHIBITOR, HEPATIC STELLATE CELL ACTIVATION INHIBITOR, HEPATIC STELLATE CELL DEACTIVATOR, HEPATIC FIBROSIS THERAPEUTIC AGENT, NON-ALCOHOLIC STEATOHEPATITIS THERAPEUTIC AGENT, PSORIASIS THERAPEUTIC AGENT, AND USE OF COMPOUND FOR PRODUCING ADENOSINE TRIPHOSPHATE …” (KURUME UNIVERSITY, priority 2023, dated 2024)

Columns and labels:
[1] = tested on: human epidermal keratinocytes; assay: ATP secretion promoted by ionomycin in keratinocytes; type: cell-based
Procedure: Human epidermal keratinocytes (Cryopreserved HEK, Lot 1758, Cell Applications Inc.) were cultured using an Epivita Keratinocyte Growth Medium Kit according to the manufacturer's instructions. The procedure was as follows. A supplement medium was added to a hydrocortisone-containing basal medium included in the medium preparation kit to prepare a complete medium. The medium in the dish was removed by aspiration. The cells were washed with 5 ml of BSS (Gbco), and then the BSS was removed by aspiration. After addition of 5 to 6 ml of trypsin/EDTA solution (Gbco), the dish was incubated at 37°C for 2 minutes. After addition of 5 ml of trypsin neutralization solution, the resulting cell suspension was transferred into two 15-ml Falcon tubes, and centrifuged at 200 × g for 5 minutes. The supernatant was removed by aspiration, and the pelleted cell cluster was suspended in 2 ml of the medium at 4.5 × 10^5 cells/ml. An aliquot of the resulting cell suspension was cryopreserved, while another aliquot was cultured and subjected to measurement.
ATP secretion by human epidermal keratinocytes (hereinafter referred to as "keratinocytes") was measured. Regarding control solutions, Krebs-Ringer HEPES supplemented with 0.2% BSA and 25 mM glucose (hereinafter also referred to as "Krebs/Iono(-)") was used as a negative control, and a solution prepared by adding 5 µM ionomycin to this solution (hereinafter also referred to as "Krebs/Iono(+)") was used as a positive control for ATP secretion. Ionomycin is a Ca^2+ ionophore. Addition of ionomycin to cells is known to promote influx of extracellular Ca^2+ into the cells to increase the intracellular Ca^2+ concentration, resulting in enhancement of ATP secretion. Test solutions were prepared by adding clodronate to Krebs/Iono(-) or Krebs/Iono(+) to a final concentration of 0.1 µM (hereinafter also referred to as "Clo/Iono(-)" or "Clo/Iono(+)", respectively) (N = 3).
Keratinocytes were cultured at 2.5 × 10^4 cells/well in a 24-well plate at 37°C in 5% CO2 for 4 days. The medium was removed by aspiration, replaced with Krebs/Iono(-) or Clo/Iono(-), and incubated at 37°C for 6 hours. These solutions were then removed by aspiration, and the content of each well incubated with Krebs/Iono(-) was replaced with 300 µl of a control solution (Krebs/Iono(-) or Krebs/Iono(+)), while the content of each well incubated with Clo/Iono(-) was replaced with 300 µl of a test solution (Clo/Iono(-) or Clo/Iono(+)). After further incubation at 37°C for 20 minutes, 200 µl of the supernatant was collected. The collected supernatant was immediately treated on a heat block at 95°C for 10 minutes, to inactivate ectonucleotidase. ATP in the supernatant was quantified using a Dojindo ATP assay kit - Luminescence (manufactured by Dojindo Laboratories).
After culturing keratinocytes, the medium was removed by aspiration, and replaced with Krebs/Iono(-), or Krebs/Iono(-) supplemented with 10 µM imeglimin, 0.1 µM EPA, 1 µM EPA, or 10 µM clodronate, followed by incubation for 6 hours. Subsequently, the solution was replaced with either a control solution (Krebs/Iono(-) or Krebs/Iono(+)) or a test solution (Krebs/Iono(+) supplemented with 10 µM imeglimin, 0.1 µM EPA, 1 µM EPA, or 10 µM clodronate), followed by incubation at 37°C for 20 minutes and then collection of 200 µl of the supernatant. The collected supernatant was immediately treated on a heat block at 95°C for 10 minutes to inactivate ectonucleotidase. ATP in the supernatant was quantified using a Dojindo ATP assay kit - Luminescence (manufactured by Dojindo Laboratories).
Keratinocytes were cultured in the same manner as in Example 1, and the medium was replaced with Krebs/Iono(-), Krebs/Iono(-) supplemented with 0.1 µM, 1 µM, or 10 µM imeglimin, or Krebs/Iono(-) supplemented with 0.1 µM, 1 µM, or 10 µM metformin, followed by incubation for 6 hours. […]

[2] = tested on: LX-2 cells; assay: ATP secretion from LX-2 cells; type: cell-based, human
Procedure: Cells of the immortalized human hepatic stellate cell line LX-2 (manufactured by Merck) was cultured in Dulbecco's modified Eagle's medium (DMEM, 4500 mg/l Glucose, D5796, manufactured by Sigma-Aldrich) supplemented with inactivated 2% fetal bovine serum (FBS), 10 IU/ml penicillin, and 10 IU/ml streptomycin in a T25 or T75 flask at 37°C in 5% CO2.
LX-2 cells (2 × 10^6 cells per well) were seeded in a collagen-coated 6-well culture dish containing Dulbecco's modified Eagle's medium (manufactured by Sigma-Aldrich) supplemented with 10 IU/ml penicillin, […] 2% fetal bovine serum, and cultured in 5% CO2 at 37°C. After 3 days, the LX-2 cells were washed twice and preincubated in Krebs-Ringer buffer (10 mM HEPES-Tris, pH 7.4, 128 mM NaCl, 1.9 mM KCl, 1.2 mM KH2PO4, 1.3 mM MgSO4, 26 mM NaHCO3, 2.4 mM CaCl2, 10 mM glucose, 0.2% (w/v) bovine serum albumin) with or without 10 µM clodronate. The LX-2 cells were then stimulated with Krebs-Ringer buffer supplemented with ionomycin (manufactured by Cayman) regardless of whether clodronate was present or not. For the stimulation, 1 mM EGTA (manufactured by Dojindo) or 10 µM serotonin (5-HT, manufactured by Sigma-Aldrich) was used. The ATP concentration in the culture supernatant was measured in the same manner as in Example 6.

[3] = tested on: human epidermal keratinocytes; assay: LPS-stimulated ATP secretion in keratinocytes; type: cell-based; conditions: 18 hours incubation, LPS 10 µg/ml 10 minutes, N = 8
Procedure: Keratinocytes were cultured in the same manner as in Example 1. Keratinocytes were cultured at 2.5 × 10^4 cells/well in a 24-well plate at 37°C in 5% CO2 for 4 days. The medium was replaced with a test solution (Hanks' balanced salt solution (HBSS) (manufactured by Gibco) supplemented with imeglimin, metformin, or clodronate), and then incubation was performed at 37°C in 5% CO2 for 18 hours. Thereafter, LPS (10 µg/ml) was added thereto, and incubation was further carried out for 10 minutes, followed by collection of 200 µl of the supernatant. The supernatant was immediately treated on a heat block at 95°C for 10 minutes, and ATP in the supernatant was quantified using an ATP Assay Kit - Luminescence (manufactured by Dojindo) (N = 8).

[4] = 10 µM, 6 hours incubation, then 20 minutes with ionomycin, N = 4

SMILES | ATP secretion promoted by ionomycin ([1]; 5 mM PEP, 20 minutes, N = 4) | ATP secretion promoted by ionomycin ([1]; 10 mM PEP, 20 minutes, N = 4) | concentration exhibiting a relatively strong ATP secretion inhibitory effect ([1]; data not shown) | ATP exocytosis induced by ionomycin ([2]; 10 µM clodronate, N = 6) | ATP secretion promoted by 5-HT ([2]; 10 µM serotonin, 10 µM clodronate, N = 6) | ATP secretion promoted by ionomycin ([1]; 0.1 µM clodronate, 6 hours incubation, then 20 minutes with 5 µM ionomycin, N = 3) | ATP secretion promoted by ionomycin [1, 4] | ATP secretion upon LPS stimulation ([3]; 10 µM) | ATP secretion from the LX-2 cells ([2]; imeglimin, concentration not given, N = 8) | ATP secretion inhibitory effect, comparison and concentration dependence ([1]; 0.1 µM, 1 µM, 10 µM, 6 hours incubation, N = 3) | ATP secretion inhibitory effect ([1]; 0.1 µM, 6 hours incubation, N = 3) | time required for production of a strong inhibitory effect ([1]; 1 µM imeglimin) | ATP secretion level relative to that obtained using the control solution ([1]; 1 µM imeglimin, incubation time 2 hours, N = 3) | ATP secretion level relative to that obtained using the control solution ([1]; 1 µM imeglimin, incubation time 6 hours, N = 3) | ATP secretion inhibitory effect compared with reference inhibitors ([1]; 10 µM imeglimin versus 1 µM EPA and 10 µM clodronate) | ATP secretion upon LPS stimulation ([3]; 1 µM)
C=C(OP(=O)(O)O)C(=O)O [PEP, phosphoenolpyruvic acid] | inhibited | inhibited | not less than 3 mM | – | – | – | – | – | – | – | – | – | – | – | – | –
O=P(O)(O)C(Cl)(Cl)P(=O)(O)O [clodronate] | – | – | – | inhibited | strongly inhibited | inhibits the ATP secretion promoted by ionomycin | inhibited | almost completely inhibited | – | – | – | – | – | – | – | –
C[C@H]1N=C(N(C)C)N=C(N)N1 [imeglimin] | – | – | – | – | – | – | inhibited | almost completely inhibited | inhibited ATP secretion | slightly higher ATP secretion inhibitory effect than metformin | exhibit an ATP secretion inhibitory effect | about 6 hours | about 85% | about 40% | comparable to those of 1 µM EPA and 10 µM clodronate | almost completely inhibited
